Where two headings read alike, the source gives them in different places.
Columns and labels:
[1] = pulmonary tuberculosis patients; cited from earlier work
[2] = Metabolic stability, incubation with human liver cytosol; format: in vitro ADME; settings: 1 µM test compound, 1 mg/mL protein
CYP3A4 = CYP3A4 (Homo sapiens, UniProt P08684); settings: microsomes
rCYP3A4 = rCYP3A4 (Homo sapiens, UniProt P08684)
[3] = cited from earlier work
[4] = Metabolic stability, incubation with human liver microsomes; settings: 1 µM test compound, 0.5 mg/mL protein
CYP1A2 = molecular target: T1, CYP1A2 (Homo sapiens, UniProt P05177); assay: CYP inhibition in human liver microsomes, CYP1A2; settings: HLM; for % Inhibition of Control Activity CYP1A2: NI: No Inhibitin
T1 sequence (P05177 1-516): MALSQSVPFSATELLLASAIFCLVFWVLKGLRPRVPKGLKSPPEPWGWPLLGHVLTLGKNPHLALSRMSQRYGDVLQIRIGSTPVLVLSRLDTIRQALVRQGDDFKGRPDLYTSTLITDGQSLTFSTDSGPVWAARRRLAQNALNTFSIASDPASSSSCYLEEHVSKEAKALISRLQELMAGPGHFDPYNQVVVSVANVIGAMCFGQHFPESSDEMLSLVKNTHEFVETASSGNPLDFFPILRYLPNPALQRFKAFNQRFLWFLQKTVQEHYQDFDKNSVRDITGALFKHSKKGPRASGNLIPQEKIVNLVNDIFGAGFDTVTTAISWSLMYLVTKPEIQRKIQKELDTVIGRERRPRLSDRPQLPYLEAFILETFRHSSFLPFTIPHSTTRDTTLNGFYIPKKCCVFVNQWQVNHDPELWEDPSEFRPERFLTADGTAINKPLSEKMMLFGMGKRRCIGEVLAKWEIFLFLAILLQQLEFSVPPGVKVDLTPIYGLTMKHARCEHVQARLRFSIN

CYP2C8 = molecular target: T2, CYP2C8 (Homo sapiens, UniProt P10632); assay: CYP inhibition in human liver microsomes, CYP2C8; settings: HLM; for % Inhibition of Control Activity CYP2C8: NI: No Inhibitin
T2 sequence (P10632 1-490): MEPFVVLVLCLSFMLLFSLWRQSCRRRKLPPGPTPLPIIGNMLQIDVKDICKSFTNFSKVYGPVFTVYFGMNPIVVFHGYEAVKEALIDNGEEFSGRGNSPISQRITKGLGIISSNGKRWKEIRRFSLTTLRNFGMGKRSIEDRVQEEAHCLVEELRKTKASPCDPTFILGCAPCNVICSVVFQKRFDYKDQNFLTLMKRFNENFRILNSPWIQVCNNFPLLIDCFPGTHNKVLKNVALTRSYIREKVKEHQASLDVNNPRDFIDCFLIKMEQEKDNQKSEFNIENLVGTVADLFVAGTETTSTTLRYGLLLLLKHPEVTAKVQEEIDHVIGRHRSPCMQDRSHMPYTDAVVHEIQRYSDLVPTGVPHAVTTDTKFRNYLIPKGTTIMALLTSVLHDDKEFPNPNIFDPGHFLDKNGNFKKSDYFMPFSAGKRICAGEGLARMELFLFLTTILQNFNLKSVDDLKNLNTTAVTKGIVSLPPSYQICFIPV

CYP2C9 = CYP2C9 (Homo sapiens, UniProt P11712); assay: CYP inhibition in human liver microsomes, CYP2C9; settings: HLM; for % Inhibition of Control Activity CYP2C9: NI: No Inhibitin
CYP2C19 = CYP2C19 (Homo sapiens, UniProt P33261); assay: CYP inhibition in human liver microsomes, CYP2C19; settings: HLM; for % Inhibition of Control Activity CYP2C19: NI: No Inhibitin
CYP2D6 = CYP2D6 (Homo sapiens, UniProt P10635); assay: CYP inhibition in human liver microsomes, CYP2D6; settings: HLM, NI: No Inhibitin
rCYP1A2 = molecular target: T3, rCYP1A2 (Homo sapiens, UniProt P05177); assay: Metabolic stability / reaction phenotyping with recombinant human CYP1A2
T3 sequence (P05177 1-516): T1 sequence (P05177 1-516)

rCYP2C8 = molecular target: T4, rCYP2C8 (Homo sapiens, UniProt P10632); assay: Metabolic stability / reaction phenotyping with recombinant human CYP2C8; settings: 1 µM test compound; 100 pmol/mL; 30 min
T4 sequence (P10632 1-490): T2 sequence (P10632 1-490)

rCYP2C9 = rCYP2C9 (Homo sapiens, UniProt P11712); assay: Metabolic stability / reaction phenotyping with recombinant human CYP2C9
rCYP2D6 = rCYP2D6 (Homo sapiens, UniProt P10635); assay: Metabolic stability / reaction phenotyping with recombinant human CYP2D6
rCYP2C19 = rCYP2C19 (Homo sapiens, UniProt P33261); assay: Metabolic stability / reaction phenotyping with recombinant human CYP2C19
[5] = 1 µM test compound, 100 pmol/mL, 30 min

Sequence of rCYP2C9 (P11712 whole entry): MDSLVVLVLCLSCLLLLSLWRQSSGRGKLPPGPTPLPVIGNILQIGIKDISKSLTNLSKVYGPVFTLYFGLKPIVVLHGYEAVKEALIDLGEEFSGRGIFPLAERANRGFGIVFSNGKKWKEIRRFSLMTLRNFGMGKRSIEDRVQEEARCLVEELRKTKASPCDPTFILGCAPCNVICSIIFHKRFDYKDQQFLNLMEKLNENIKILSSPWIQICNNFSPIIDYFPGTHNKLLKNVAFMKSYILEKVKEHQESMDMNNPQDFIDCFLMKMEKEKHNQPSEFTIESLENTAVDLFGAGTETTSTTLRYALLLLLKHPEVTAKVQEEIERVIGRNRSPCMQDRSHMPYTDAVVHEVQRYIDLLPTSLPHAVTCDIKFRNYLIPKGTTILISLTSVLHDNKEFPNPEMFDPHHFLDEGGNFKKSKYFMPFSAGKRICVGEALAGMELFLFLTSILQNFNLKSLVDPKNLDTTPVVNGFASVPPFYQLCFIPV
Sequence of CYP2C9 (P11712 whole entry): as above
Sequence of rCYP3A4 (P08684 whole entry): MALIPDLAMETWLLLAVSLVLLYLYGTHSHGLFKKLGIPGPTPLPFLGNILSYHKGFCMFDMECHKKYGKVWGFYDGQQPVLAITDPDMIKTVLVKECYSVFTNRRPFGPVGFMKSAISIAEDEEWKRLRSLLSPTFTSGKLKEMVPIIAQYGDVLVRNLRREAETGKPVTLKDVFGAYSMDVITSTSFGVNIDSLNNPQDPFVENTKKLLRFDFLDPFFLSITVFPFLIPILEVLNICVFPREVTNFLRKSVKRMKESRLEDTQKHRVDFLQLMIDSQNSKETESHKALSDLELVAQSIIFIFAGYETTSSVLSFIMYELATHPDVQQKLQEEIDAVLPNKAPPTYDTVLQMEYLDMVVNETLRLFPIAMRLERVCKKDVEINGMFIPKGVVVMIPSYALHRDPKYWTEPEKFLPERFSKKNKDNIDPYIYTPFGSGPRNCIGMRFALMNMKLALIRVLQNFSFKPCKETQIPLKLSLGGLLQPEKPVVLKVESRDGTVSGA
Sequence of rCYP2D6 (P10635 whole entry): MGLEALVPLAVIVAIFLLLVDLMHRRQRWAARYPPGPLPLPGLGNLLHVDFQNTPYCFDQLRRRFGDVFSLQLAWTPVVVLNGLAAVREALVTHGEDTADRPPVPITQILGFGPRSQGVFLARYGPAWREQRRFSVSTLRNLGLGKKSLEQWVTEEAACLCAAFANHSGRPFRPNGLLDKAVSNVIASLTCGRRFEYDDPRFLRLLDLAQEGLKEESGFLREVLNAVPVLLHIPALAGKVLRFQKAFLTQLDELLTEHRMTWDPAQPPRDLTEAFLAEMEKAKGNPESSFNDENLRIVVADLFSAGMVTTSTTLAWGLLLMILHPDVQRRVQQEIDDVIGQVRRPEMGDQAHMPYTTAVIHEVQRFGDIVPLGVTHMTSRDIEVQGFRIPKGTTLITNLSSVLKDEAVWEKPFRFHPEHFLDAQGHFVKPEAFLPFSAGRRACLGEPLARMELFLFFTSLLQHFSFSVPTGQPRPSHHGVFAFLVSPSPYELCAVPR
Sequence of rCYP2C19 (P33261 whole entry): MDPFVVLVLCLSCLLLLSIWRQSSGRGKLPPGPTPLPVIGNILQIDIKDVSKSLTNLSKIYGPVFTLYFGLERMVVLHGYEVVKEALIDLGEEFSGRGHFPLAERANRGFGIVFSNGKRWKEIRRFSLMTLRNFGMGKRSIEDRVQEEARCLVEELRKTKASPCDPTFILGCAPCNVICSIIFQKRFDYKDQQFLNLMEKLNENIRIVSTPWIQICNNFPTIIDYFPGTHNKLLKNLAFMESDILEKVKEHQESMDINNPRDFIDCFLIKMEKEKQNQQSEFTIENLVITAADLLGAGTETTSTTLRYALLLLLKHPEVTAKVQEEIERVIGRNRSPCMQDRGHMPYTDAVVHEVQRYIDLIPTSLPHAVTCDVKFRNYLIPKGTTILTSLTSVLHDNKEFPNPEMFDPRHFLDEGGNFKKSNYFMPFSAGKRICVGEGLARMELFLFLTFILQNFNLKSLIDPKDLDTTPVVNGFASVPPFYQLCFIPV
Sequence of CYP2C19 (P33261 whole entry): as above
Sequence of CYP2D6 (P10635 whole entry): as the sequence (P10635 whole entry) above
Sequence of CYP3A4 (P08684 2-503): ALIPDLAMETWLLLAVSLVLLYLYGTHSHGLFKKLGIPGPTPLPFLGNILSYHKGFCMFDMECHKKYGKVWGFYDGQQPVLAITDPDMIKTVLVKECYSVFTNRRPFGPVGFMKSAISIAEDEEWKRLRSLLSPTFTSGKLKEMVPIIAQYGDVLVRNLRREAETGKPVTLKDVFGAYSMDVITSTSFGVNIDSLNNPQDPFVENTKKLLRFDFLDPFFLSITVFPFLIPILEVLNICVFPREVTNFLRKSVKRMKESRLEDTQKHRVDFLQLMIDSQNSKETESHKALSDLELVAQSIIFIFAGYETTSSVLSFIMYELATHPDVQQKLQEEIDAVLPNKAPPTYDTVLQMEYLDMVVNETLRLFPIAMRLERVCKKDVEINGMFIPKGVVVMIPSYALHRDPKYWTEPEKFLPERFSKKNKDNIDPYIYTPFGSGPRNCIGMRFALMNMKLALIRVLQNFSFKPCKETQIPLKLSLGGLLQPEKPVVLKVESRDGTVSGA

For CC(=O)NC[C@H]1CN(c2ccc(N3CC[S+]([O-])CC3)c(F)c2)C(=O)O1 [sutezolid sulfoxide], the “metabolite to parent (sutezolid sulfoxide/ sutezolid) median concentration ratio” value [1] is listed as 7.1.
For triclabendazole sulfoxide, the “% Metabolized at 30 min Incubation with Human Liver Fractions/Enzymes Cytosol” value [2] was 0.00%, the “% Inhibition of Control Activity CYP3A4 (substrate, testosterone)” value (CYP3A4; 2 µM) was 0.18% and the “% Inhibition of Control Activity CYP3A4 (substrate, testosterone)” value (CYP3A4; 10 µM) was 14.43%. The “Predicted Microsomal Clint, CYP3A4” value (rCYP3A4) was 1.626 µL/min/mg Protein, the “% Metabolized at 30 min Incubation with Human Liver Fractions/Enzymes rCYP3A4” value (rCYP3A4; [5]) was 4.30% and the “rCYP Clint, CYP3A4” value (rCYP3A4; human, recombinant enzyme) was 0.015 µL/min/pmol. The “% Contribution of CYP Enzymes (fmCYP) in Metabolism, CYP3A4” value (rCYP3A4; recombinant enzyme) was 2.35%, the Cmax ([3]; human patients at therapeutic doses of triclabendazole) was 38.6 µM and the half-life ([3]; humans) was 11 to 12 h. The peak concentration ([3]; humans, standard dose of triclabendazole of 10 mg/kg) was 38.6 µM, the “% Metabolized at 30 min Incubation with Human Liver Fractions/Enzymes HLM” value [4] was 18.08% and the “% Inhibition of Control Activity CYP1A2” value (CYP1A2; inhibitor 2 µM) was 39.42%. The “% Inhibition of Control Activity CYP1A2” value (CYP1A2; inhibitor 10 µM) was 69.42%, the IC50 (CYP1A2; read-out: IC50 CYP 1A2) was 4.19 µM and the “% Inhibition of Control Activity CYP2C8” value (CYP2C8; inhibitor 2 µM) was 11.20%. For the same compound, the “% Inhibition of Control Activity CYP2C8” value (CYP2C8; inhibitor 10 µM) was 53.67%, the IC50 (CYP2C8; read-out: IC50 CYP 2C8) was 8.95 µM and the “% Inhibition of Control Activity CYP2C9” value (CYP2C9; inhibitor 2 µM) was 49.60%. For the same compound, the “% Inhibition of Control Activity CYP2C9” value (CYP2C9; inhibitor 10 µM) was 86.62%, the IC50 (CYP2C9; read-out: IC50 CYP 2C9) was 1.95 µM and the “% Inhibition of Control Activity CYP2C19” value (CYP2C19; inhibitor 2 µM) was 84.33%. The “% Inhibition of Control Activity CYP2C19” value (CYP2C19; inhibitor 10 µM) was 88.87%, the IC50 (CYP2C19; read-out: IC50 CYP 2C19) was 0.22 µM and the “% Inhibition of Control Activity CYP2D6” value (CYP2D6; inhibitor 2 µM) was 1.63%. The “% Inhibition of Control Activity CYP2D6” value (CYP2D6; inhibitor 10 µM) was 3.13%, the “Predicted Microsomal Clint, CYP1A2” value (rCYP1A2) was 3.968 µL/min/mg Protein and the “% Metabolized at 30 min Incubation with Human Liver Fractions/Enzymes rCYP1A2” value (rCYP1A2; [5]) was 20.46%. The “rCYP Clint, CYP1A2” value (rCYP1A2; human, recombinant enzyme) was 0.076 µL/min/pmol, the “% Contribution of CYP Enzymes (fmCYP) in Metabolism, CYP1A2” value (rCYP1A2; recombinant enzyme) was 5.73% and the “% Metabolized at 30 min Incubation with Human Liver Fractions/Enzymes rCYP2C8” value (rCYP2C8) was 0.00%. The “Predicted Microsomal Clint, CYP2C9” value (rCYP2C9) was 57.057 µL/min/mg Protein, the “% Metabolized at 30 min Incubation with Human Liver Fractions/Enzymes rCYP2C9” value (rCYP2C9; [5]) was 83.19% and the “rCYP Clint, CYP2C9” value (rCYP2C9; human, recombinant enzyme) was 0.594 µL/min/pmol. For the same compound, the “% Contribution of CYP Enzymes (fmCYP) in Metabolism, CYP2C9” value (rCYP2C9; recombinant enzyme) was 82.43%, the “Predicted Microsomal Clint, CYP2D6” value (rCYP2D6) was 0.125 µL/min/mg Protein and the “% Metabolized at 30 min Incubation with Human Liver Fractions/Enzymes rCYP2D6” value (rCYP2D6; [5]) was 3.68%. For the same compound, the “rCYP Clint, CYP2D6” value (rCYP2D6; human, recombinant enzyme) was 0.012 µL/min/pmol, the “% Contribution of CYP Enzymes (fmCYP) in Metabolism, CYP2D6” value (rCYP2D6; recombinant enzyme) was 0.18% and the “Predicted Microsomal Clint, CYP2C19” value (rCYP2C19) was 6.442 µL/min/mg Protein. For the same compound, the “% Metabolized at 30 min Incubation with Human Liver Fractions/Enzymes rCYP2C19” value (rCYP2C19; [5]) was 63.84%, the “rCYP Clint, CYP2C19” value (rCYP2C19; human, recombinant enzyme) was 0.339 µL/min/pmol and the “% Contribution of CYP Enzymes (fmCYP) in Metabolism, CYP2C19” value (rCYP2C19; recombinant enzyme) was 9.31%.

From paper PMC6416464 (Drug Metabolism Letters, 2018)
